From patent publication US10143727B2, “Method using an Y1 receptor activator for treating an anticancer agent-induced nephrotoxic injury” (KYUNGPOOK NATIONAL UNIVERSITY INDUSTRY-ACADEMIC COOPERATION …, priority 2016, dated 2018)

What was measured:
[1] = tested on: cisplatin-induced renal injury; assay: Histology (H&E staining) and morphological assessment of renal tissues; type: in vivo, C57BL/6 mice
Protocol: (§1) Six- to eight-weeks old male or female C57BL/6 mice were purchased from the Jackson laboratory. A block randomization method was used to divide these animals into experimental groups. In order to eliminate bias, investigators were blinded during data collection and analysis. The mice were housed under a 12 hour day-night cycle. They were provided with free access to water and food pellets. This animal study was approved by the Kyungpook National University Institutional Animal Care and Use Committee.
(§2) Three days later, kidneys were collected and analyzed.
(§3) Formaldehyde-fixed kidneys were dehydrated using graded alcohol series and paraffinized. Paraffin sections of 5 μm were stained with hematoxylin and eosin (H&E). Each parameter was determined for at least 6 different animals. TUNEL assays were performed using In Situ Cell Detection Kit, Fluorescein (Roche Diagnostic) according to the manufacturer's instructions. A pathologist quantified kidney damage in a double blinded manner using renal damage score, as previously described (See Jiang M et al., Am J Physiol Renal Physiol 287, F1140-1147, 2004). Briefly, tissues were stained with H&E. The degree of morphological involvement in renal dysfunction was determined using light microscopy.
Each parameter was determined for at least five different animals.

[2] = tested on: cisplatin-induced apoptosis in the kidney; assay: TUNEL assay of renal apoptosis; type: in vivo, C57BL/6 mice; conditions: cisplatin 15 mg per kg mice; 50 ug per kg i.p. daily for 3 days
Protocol: as §1, §2, §3

[3] = tested on: cisplatin-induced renal injury; assay: Creatinine and BUN assays in cisplatin-induced renal injury; type: in vivo, C57BL/6 mice; conditions: cisplatin 15 mg per kg mice; test peptide 50 ug per kg i.p. daily for 3 days; vs cisplatin-treated mice
Protocol: as §1, §2
To monitor renal function, plasma levels of BUN and creatinine were determined using commercially available kits as described previously (See Pabla N et al., J Clin Invest 121, 2709-2722, 2011).

[4] = tested on: p53-dependent apoptosis pathway; type: in vivo; conditions: renal tissues of cisplatin-treated mice; 50 ug per kg i.p. daily for 3 days
Protocol: as §1, §2
Samples were immunoblotted as previously described (See Santos-Carvalho A et al., Cell Death Dis 4, e636, 2013). Primary antibodies against the following proteins were used: P53(mouse, 1: 1000, Cell Signaling Technologies, 2524), Bax (rabbit, 1: 1000, Cell Signaling Technologies, 2772), Bcl2 (rabbit, 1: 1000, Cell Signaling Technologies, 5114S), and β-actin (1: 1000, Santa Cruz, SC-1615). Densitometric quantification was performed using Image J software (US National Institutes of Health).
Real time RT-PCR was performed as previously described (See Hu L et al., BMB Rep 48, 583-588, 2015). […] Quantitative real-time PCR was performed using Corbett research RG-6000 real-time PCR instrument. […]

Compound	Cisplatin-induced increase in apoptotic tubular cells in the renal cortex (H&E) ([1]; cisplatin 15 mg per kg mice, 50 ug per kg i.p. daily for 3 days)	Apoptotic cells in the kidney (TUNEL assay) [2]	Plasma concentration of blood urea nitrogen (BUN) [3]	Plasma concentration of creatinine [3]	Expression levels of p53 and pro-apoptotic genes such as Bax, Noxa, and Puma [4]	Renal injury (H&E, tubular damage) ([1]; cisplatin 15 mg per kg mice, 50 ug per kg i.p. daily for 3 days, FIG. 3d)	Apoptotic tubular cells in the renal cortex (H&E) ([1]; cisplatin 15 mg per kg alone)
Neuropeptide Y [Neuropeptide Y (NPY)]	diminished	decrease	decreased	decreased	decreased	–	–
[Leu31Pro34]NPY [Y1 agonist]	–	decreased	reduced	reduced	suppressed	significantly reduced	–
N.N.[Cl][Pt][Cl] [cisplatin, Cisplatin, reference compound]	–	–	–	–	–	–	increase
